Assay results from US4146628A, “Antiarrhythmic quinuclidine carboxylic acid xylidide and method of producing the same and similar compounds” (priority 1977, dated 1979).
“And” between values parts separate entries of the source, which are not always exact repeats. Equal values may be shown once. “Also recorded” adds a separate entry of the source. Where a name gives a salt, the structure may show the parent alone. Read-outs that look alike come from different tables or passages of the source.

Experiments:
[1] = test system: albino mice; experiment: Symptoms after intraperitoneal administration to albino mice; type: in vivo; settings: i.p.
From the text: This is confirmed by the tests of compound II, namely the hydrochloride of 2,6-xylidide of quinuclidine-2-carboxylic acid, which was produced both by the method of French Pat. No. 1,566,045, and by the method of the present invention. Administration of Compound II to albino mice by the intraperitoneal route induced the following symptoms: […]

[2] = Effect of Compound II in arrhythmia induced by coronary occlusion; type: in vivo; settings: dog 15 kg, 24 hours after ligation; i.v. 3 mg per kg
From the text: Arrhythmia was induced in a dog of 15 kg body weight, by ligation of the left anteria descending coronary artery with a silk thread number 000.

[3] = Effect of Compound II in drug-induced (ouabain) arrhythmia; type: in vivo; settings: 2.7 kg cat, nembutal; ouabain 70 μg per kg; i.v. 1.1 mg per kg
Description: Arrhythmia was induced in 2.7 kg cat, previously anesthetized with nembutal, by the slow infusion of ouabain over a period of one hour and to a total dose of 70 μg per kg.

[4] = Summary comparison with lidocaine: side effects; settings: summary table
[5] = Summary comparison with lidocaine: ouabain-induced arrhythmia; type: in vivo; settings: i.v.
[6] = Occlusion-induced arrhythmias in conscious dogs, parenteral administration; type: in vivo
Description: The effect of parenteral administration of Compound I on occlusion-induced arrhythmias in conscious dogs was determined. Occulsion was achieved by ligation of the left anteria descending coronary artery on 5 dogs.
Compound I was administered once within 24 hours and once within 48 hours after ligation.

[7] = Ouabain-induced arrhythmia in the cat; type: in vivo; set-up: key to S.R. (sinus rhythm), Lidocaine-treated / S.R. (sinus rhythm), Compound I treated: +: denotes return to the rhythm
[8] = Dahlbom and Dolby, Acta Pharm. Suecica (1969); cited from earlier work
[9] = Comparative tests of antiarrhythmic action, neurotoxicity and side effects (general statements); settings: general statement
[10] = Acute toxicity, i.p. injection in mice; settings: mouse, in vivo, ip, 0.5% solution, male albino ICR mice, probit analysis
Description: The toxicity of Compound I was determined by i.p. injection of a 0.5% solution of the drug into male, albino ICR mice weighing 20-25 g each. A group of six mice was used for each dose.

[11] = test system: conscious, healthy dogs; settings: dog, in vivo, iv, 5 mg/kg
[12] = in vivo
[13] = Biological availability by the oral route in dog; type: in vivo
Description: The biological availability of Compound I administered by the oral route was determined first in a conscious, healthy dog that received a dose of 7.5 mg/kg subdivided in 6 gelatin capsules that were slipped down its throat.

[14] = test system: normal heart; experiment: Effect on normal heart (ECG) in nembutal-anesthetized cats; type: in vivo
Description: Nembutal anesthetized cats responded differently. […] If drug administration was discontinued at this stage, then the severe toxic effects would disappear after 40 minutes, the heart reverting to normal sinus rhythm.

[15] = Ouabain-induced arrhythmia in dogs; type: in vivo; set-up: key to S.R. (sinus rhythm), Compound I treated: +: denotes return to the rhythm
Description: In other experiments using mongrel dogs, the animals were anesthetized by an i.v. injection of nembutal (25 mg/kg), then arrhythmia was induced by the administration of decreasing doses of ouabain at 30 minute intervals, 40, 20 and 10 μg/kg. Treatment with Compound I was then carried out as described for cats.

[16] = Interaction with oxotremorine-induced tremors; type: in vivo; settings: oxotremorine 20 μg/kg i.p.; given i.p. 30 minutes prior
From the text: (§1) The lack of interaction of Compound I with other centrally active drugs may also be taken as an indication of its lack of activity in the CNS.

[17] = in vivo; remark: listed apart in the source
[18] = Interaction with electro shock-induced seizure; type: in vivo; settings: 30 volts
From the text: as §1

[19] = test system: normal heart; experiment: Effect on normal heart (ECG) in conscious healthy dogs; type: in vivo
Description: The effect of Compound I on the normal heart was determined by the administration of the compound as a bolus intravenous injection to conscious healthy dogs for which lead II of the electrocardiogram was monitored for as long as 2 hours after injection.
In one case, a single dose of 5 mg/kg was administered rapidly in order to achieve a high but transient concentration in the heart. […] The ECG record reverted to normal within 15 minutes.

[20] = Interaction with metrazole-induced convulsions; type: in vivo; settings: metrazole 100 mg/kg; i.p. 30, 60 and 90 minutes prior to metrazole
From the text: as §1

[21] = Interaction with Indoklon-induced seizures; type: in vivo; settings: Indoklon by inhalation 30 minutes later
From the text: as §1

[22] = Solubility
[23] = Pharmacokinetic parameters in conscious dogs with occlusion-induced arrhythmia; type: in vivo; settings: dog, blood, iv
Description: The pharmacokinetic parameters of Compound I were determined in conscious dogs suffering from occlusion-induced arrhythmia. After intravenous injection of a single therapeutic dose, venous blood samples were withdrawn at given intervals, heparinized and analyzed for their content of Compound I by gas chromatography.

[24] = Occlusion-induced arrhythmias in conscious dogs, oral administration; type: in vivo; settings: oral 15-20 mg/kg in 4 to 6 gelatin capsules, all cases
Description: Tests were also carried out to determine the effect of oral administration of Compound I on occlusion induced arrhythmias in conscious dogs.
Arrhythmia was induced by occlusion of the left anterior descending artery, as above described. Following this, Compound I was administered orally to the animals at the rate of 15-20 mg/kg, the dose being divided among 4 to 6 gelatin capsules, without prior treatment such as micronization or admixture with a diluent or carrier.

[25] = test system: normal heart; experiment: Effect on normal heart (ECG) in nembutal-anesthetized dog; type: in vivo; settings: nembutal 25 mg/kg; cumulative i.v. dose 6 mg/kg over 30 minutes
[26] = French Pat. No. 1,566,045; cited from earlier work
[27] = cat 13, lidocaine HCl single i.v. injection 1.6 mg/kg
[28] = cat, lidocaine HCl single i.v. injection 4 mg/kg, 4 mg/kg
[29] = dog, conditions as Table 1, hydrochloride

## Cc1cccc(C)c1NC(=O)C1CC2CCN1CC2 (centres unmarked) [Compound II, 2,6-xylidide of quinuclidine-2-carboxylic acid hydrochloride]
[1]; 100 mg per kg
  cause of death: respiratory failure
[1]; albino mice
  lethal dose: 100 mg. per kg
[1]; dose range 20-30 mg per kg
  Effects: increased locomotion, excitation
[1]; dose range 40-60 mg per kg, hydrochloride
  Effects: pronounced neurotoxicity, ataxia; also recorded: partial paralysis
[2]
  neurotoxicity: clear signs of neurotoxicity such as undue excitement and lateral movements of the head
  response in the electrocardiogram: only a fleeting response in the electrocardiogram with only a few signs of improvement
[3]
  effect in ouabain-induced arrhythmia: precipitated ventricular fibrillation and death

## CCN(CC)CC(=O)Nc1c(C)cccc1C [Lidocaine]
[4]
  Side effects: Emesis: partial
  Side effects: Hypotension: about 20%
[5]
  Onset of effect, ouabain-induced arrhythmia: about 2 minutes
[6]; i.v.
  Onset of effect, occlusion-induced arrhythmia within 1st 24 hr.: 2 min
  Single therapeutic dose for suppression of Occlusion-induced arrhythmia within 1st 24 hr. after operation: often ineffective
[6]; same animals, bolus i.v. 3 mg/kg
  effect of lidocaine on occlusion-induced arrhythmia: either completely ineffective or of ultra-short duration
[7]; [27]
  B.P. (blood pressure), Lidocaine-treated: 130/100
  Duration (period of observation from onset of reversal of arrhythmia): 3 min
  H.R. (heart rate), Lidocaine-treated: 80 per min
  S.R. (sinus rhythm), Lidocaine-treated: +
[7]; [28]
  B.P. (blood pressure), Lidocaine-treated: 60/40 and 120/80
  H.R. (heart rate), Lidocaine-treated: 150 per min and 110 per min
[7]; cats 12 and 13
  reappearance of arrhythmia after lidocaine: Arrhythmia reappeared

## Cc1cccc(C)c1NC(=O)C1CN2CCC1CC2 (centres unmarked) [2,6-xylidide of quinuclidine-3-carboxylic acid]
[8]
  pharmacological effect: no pharmacological effect except for a weak local anaesthetic action
[9]
  cardiac antiarrhythmic action: pronounced cardiac antiarrhythmic activity; also recorded: highly pronounced cardiac antiarrhythmic action

## Cc1cccc(C)c1NC(=O)C1CN2CCC1CC2 (centres unmarked) [Compound I, 2,6-xylidide of quinuclidine-3-carboxylic acid hydrochloride]
[10]
  LD50: 60 ± 5 mg/kg
[11]
  change in posture, behavior or mood: no significant change in posture, behavior or mood from control
[12]
  Side effects: Hypotension: none
[4]
  Side effects: CNS-effects: none
  Side effects: Emesis: partial
[13]; conscious arrhythmic dogs, oral, relative to healthy dog
  bioavailability in conscious arrhythmic dogs: of the same order
[13]; dog, in vivo, po, summary table
  bioavailability: ~80%
[13]; in vivo, oral 7.5 mg/kg in 6 gelatin capsules, conscious healthy dog, read-out: Peak blood concentration
  Cmax: 1500 to 2000 ng/mL
[5]
  Duration of effect, ouabain-induced arrhythmia: about 1 hour
  Onset of effect, ouabain-induced arrhythmia: about 2 minutes
[14]; cumulative dose 6 mg/kg
  effect on ECG: broadening of the QRS occurred but sinus rhythm was maintained
[14]; cumulative dose 10.5 mg/kg
  effect on ECG: broadening of the QRS occurred but sinus rhythm was maintained
[14]; cumulative dose 16.5 mg/kg, hydrochloride, 16.5 mg/kg
  effect on ECG / conduction: second degree AV block occurred; also recorded: Atrial conduction slowed down
[14]; drug administration discontinued after 16.5 mg/kg cumulative, heart reverting to normal sinus rhythm
  time to disappearance of severe toxic effects: 40 min
[14]; further […], total cumulative dose 23.5 mg/kg
  effect on ECG / heart: high degree AV block, followed by cardiac standstill
[14]; total dose of 3 mg/kg in small increments over 34 minutes
  effect on ECG: leftward shift of the QRS complex
[15]; dog, conditions as Table 1
  H.R. (heart rate), Compound I treated: 170 per min
  S.R. (sinus rhythm), Compound I treated: +
[15]; [29]
  B.P. (blood pressure), Compound I treated: 100/80 and 140/110
  Duration (period of observation from onset of reversal of arrhythmia): 40 min and 25 min
[15]; dogs 14, 15, one i.v. injection of […]
  reappearance of arrhythmia and response to additional dose: Arrhythmia reappeared after this period but was suppressed
[15]; dogs, 1 mg/kg single doses
  reversal of VT to normal sinus rhythm: reversal of VT to normal sinus shythm was achieved
[16]
  effect on oxotremorine-induced tremors: did not affect oxotremorine-induced tremors
[6]; i.v.
  Onset of effect, occlusion-induced arrhythmia within 1st 24 hr.: 2 min
[6]; one bolus i.v. injection of 3 mg/kg within 24 hours after ligation
  duration of full, uninterrupted sinus rhythm: ≤ 20 min
[17]
  side effects: absence of side effects such as hypotension and CNS stimulation
[18]
  effect against electro shock-induced seizure: equally ineffective
[19]; dog, in vivo, 5 mg/kg
  effect on ECG: Broadening of the QRS complex was observed
  time for ECG record to revert to normal: ≤ 15 min
[19]; dog, in vivo, iv, 3 mg/kg
  change in the ECG: no change in the ECG
[19]; single dose of 5 mg/kg administered rapidly, one case
  other signs of overt toxicity: no other signs of overt toxicity
[7]; cat 1, 0.5 mg/kg used
  B.P. (blood pressure), Compound I treated: 80/60
  Duration (period of observation from onset of reversal of arrhythmia): 10 min
  H.R. (heart rate), Compound I treated: 100 per min
  S.R. (sinus rhythm), Compound I treated: +
[7]; cat 3, bolus i.v. 1 mg/kg, after ouabain
  Duration (period of observation from onset of reversal of arrhythmia): 240 min
[7]; cat, single dose 1 mg/kg, 10 minutes after constant arrhythmia, ouabain 70-90 μg/kg cumulative
  improvement of the ECG: marked improvement of the ECG that lasted much longer than any improvement achieved with lidocaine
[7]; cats marked ##, additional dose 1 mg/kg for 2, 7 and 0.5 mg/kg for 10
  reappearance of arrhythmia and response to additional dose: suppressed again with an additional dose of EO-122
[20]
  effect on metrazole-induced convulsions: did not affect metrazole-induced convulsions
[21]
  effect against Indoklon-induced seizures: equally ineffective
[22]
  solubility: highly soluble
[23]; i.v. single therapeutic dose, conscious arrhythmic dogs, venous blood, GC, read-out: Biological half-life (t1/2)
  half-life: 4 to 5 h
[23]; i.v. single therapeutic dose, conscious arrhythmic dogs, read-out: t1/2 for distribution
  half-life: 0.0833 h
[23]; summary table, read-out: t1/2 for distribution
  half-life: 0.0833 h
[23]; summary table, read-out: t1/2 for elimination
  half-life: 4 to 5 h
[23]; summary table, read-out: volume of distribution
  Vd: 0.2 L/kg
[24]
  restoration of normal sinus rhythm: fully effective in the restoration of normal sinus rhythm
[25]
  change in the ECG: no change in the ECG

## Cc1cccc(C)c1NC(=O)C1CC2CCN1CC2 (centres unmarked) [2,6-xylidide of quinuclidine-2-carboxylic acid]
[9]
  cardiac antiarrhythmic action: devoid of useful cardiac antiarrhythmic action; also recorded: devoid of useful antiarrhythmic properties; also recorded: devoid of any useful cardiac antiarrhythmic effect
  neurotoxicity: neurotoxic
[9]; listed as 2,6,-xylidide of quinuclidine-2-carboxylic acid
  cardiac antiarrhythmic action: completely devoid of any useful antiarrhythmic action
[26]
  action indicated: antiarrhythmic and local anaesthetic action
